{"source": "paper PMC12002130", "about": "“Proteorhodopsin insights into the molecular mechanism of vectorial proton transport” (Science Advances, 2025)", "molecules": {"B1": {"name": "MAR (marine actinobacterial rhodopsin, MacR), a proteorhodopsin (Candidatus Actinomarina minuta) (protein)", "chain": "MEELTYRLFMVATVGMLAGTVFLLASSREVKPEHRRGVYISALVCGIAWYHYQKMGASWESGSYDTGLRYVDWVLTVPLMFVEVLAVTRKGAAYNEAVRNWGIAATVMIGAGYYGETSAAGSNEYWTGFVIAMATYVWLMRNLQAEGEGLKGDQAVAFENIKNLILVGWIIYPLGYIAPVVGDFDAIREVLYTIADIINKVGLGVLVLQMARVQSGEKVSPGGGSHHHHHH"}}, "key": {"MAR-Arf1L8K,Q71L chimera [1]": {"biological_target": "T1, MAR-Arf1L8K,Q71L chimera (Candidatus Actinomarina minuta, UniProt S5DM51)", "T1 construct": "MAR fused to bovine Arf1 (L8K, Q71L) as crystallisation spacer on the cytoplasmic side; C-terminal GSGGSHHHHHH tag; expressed in E. coli C41(DE3); retinal site wholly in MAR", "T1 sequence (P84080 2-181 L8K/Q71L, one chain of several, further chain)": "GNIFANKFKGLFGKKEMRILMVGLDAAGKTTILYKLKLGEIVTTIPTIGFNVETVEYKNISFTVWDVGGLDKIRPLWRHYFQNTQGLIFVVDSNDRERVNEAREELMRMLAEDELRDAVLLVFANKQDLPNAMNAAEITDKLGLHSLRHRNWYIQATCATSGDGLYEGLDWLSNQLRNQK", "assay": "X-ray crystallography", "assay_type": "binding", "conditions": "covalent; Schiff base to Lys200 of MAR; dark (ground) state, pH 7.0; all-trans form taken from MAR ground state"}, "MAR-Arf1L8K,Q71L chimera [2]": {"biological_target": "T1, MAR-Arf1L8K,Q71L chimera", "assay": "X-ray crystallography, cryotrapped N state", "assay_type": "binding", "conditions": "covalent; photoisomer formed in situ by 532-nm light; pH 7.0; 2.3 A; isomer not assignable from density alone"}, "Asp72 (position 72, …)": {"biological_target": "Asp72 (position 72, …)", "assay": "UV-vis", "conditions": "dark (ground) state, solubilized MAR with all-trans retinal"}}, "data": [{"molecule": "CC1=C(/C=C/C(C)=C/C=C/C(C)=C/C=O)C(C)(C)CCC1", "note": "[all-trans retinal]", "values": [{"measurement": "X-ray crystallography", "setting": "MAR-Arf1L8K,Q71L chimera [1]", "result": "The conformation of the MAR molecule is similar to that in the ground state"}]}, {"molecule": "CC1=C(/C=C/C(C)=C/C=C/C(C)=C\\C=O)C(C)(C)CCC1", "note": "[13-cis,15-anti retinal]", "values": [{"measurement": "X-ray crystallography, cryotrapped N state", "setting": "MAR-Arf1L8K,Q71L chimera [2]", "result": "the retinal conformation in the N state represents the 13-cis,15-anti form"}]}, {"molecule": "B1", "values": [{"measurement": "pKa", "setting": "Asp72 (position 72, …)", "result": "~7.4"}]}]}
